Test results published in patent US20170354659A1, “COMPOSITIONS CONTAINING DEFINED CAFFEINE AND THEOBROMINE LEVELS WITH ENHANCED COGNITIVE PROPERTIES” (The Hershey Company, priority 2014, published 2017).

Assays:
brain blood flow = settings: difference between caffeine and theobromine, 6 participants; cited from earlier work
[1] = tested on: regions of the brain associated with caffeine cravings; test: fMRI brain blood flow/connectivity analysis; type: in vivo, human; settings: subjects with a caffeine habit, FIG. 1 and 3
From the text: Measurement or detection of changes in the brain can be done using functional MRI (fMRI) and functional brain network analyses as known in the art. The following is an exemplary study using known techniques based upon fMRI scanning of human brains.
These examples represent an intervention study (number of subjects=24) with a randomized controlled, double-blind, placebo-controlled crossover design. The study is designed to ensure completion of all possibilities in the order of delivering the test samples, i.e. each subject is administered each of the possible test beverages in different order. An approximately equal number of men and women should be included and ethnic groups and minorities should also be included. For initial baseline testing, subjects undergo 16 hours of caffeine and chocolate withdrawal for a baseline testing and then participate in four separate brain scanning visits over 5-10 weeks. […] As determined from a medical screening session, any subjects with active neurological dysfunction (such as a major Axis I psychopathology, Alzheimer's disease, Parkinson's disease, prior history of stroke, epilepsy, or serious CNS trauma, ADHD, migraines, hypertension, diabetes, peripheral vascular disease, or taking vasoactive medications, such as antihypertensive medications) are excluded from the study. […]

Cn1cnc2c1c(=O)[nH]c(=O)n2C [theobromine]
brain blood flow difference (brain blood flow): 5.03 ml/100 gm tissue/min

Cn1c(=O)c2c(ncn2C)n(C)c1=O [Caffeine, caffeine]
change in blood flow/connectivity by fMRI [1]: typical reduction in blood flow/connectivity
